# Test results from patent US11607422B2, “Uttroside B and derivatives thereof as therapeutics for hepatocellular carcinoma” (Rajiv Gandhi Centre for Biotechnology, an Autonomous …, priority 2016, dated 2023).
# Tests used:
# A375 = test: MTT cell viability assay in A375 cells; format: cell-based; conditions: 72 h
# Description: FIG. 2A is a graph comparison of IC50 of Uttroside B in a panel of cancer cells of different origin. The cancer cell lines HeLa, A375, HepG2, MDA-MB-231, HL 60, A549 and HCT116 were treated with Uttroside B as indicated, incubated for 72 h and the cell viability was assessed by MTT assay. FIG. 2B is a graph showing dose dependent effect of Uttroside B in the liver cancer cell lines and in normal immortalized hepatocytes. The liver cancer cell lines HepG2, Hep3B, SKHEP-1, Huh-7 and normal hepatocytes (Chang liver), were treated with Uttroside B incubated for 72 h and the cell viability was assessed by MTT assay. FIG. 2C is a graph comparison of IC50 of Uttroside B with sorafenib. HepG2 cells were treated with Uttroside B as indicated, incubated for 72 h, and the cell viability was assessed by MTT assay. […] The clones developed were counted and plotted as a graph. Colony containing more than four cells was counted as one clone. […]
# MTT [3-(4,5-dimethylthiazole-2-yl)-2,5-diphenyltetrazolium bromide] assay is a standard colorimetric assay, suitable for analyzing proliferation, viability, and cytotoxicity. […] After overnight incubation, cells were treated with different concentrations of organic extracts (25-250 μg/ml) of S. nigrum and the isolated compound Uttroside B (250-1250 nM) for 72 h and cytotoxicity was measured. […]
# HepG2 cells = test: Phase contrast microscopy of morphological changes in HepG2 cells; format: cell-based, human
# Description: FIG. 2A is a graph comparison of IC50 of Uttroside B in a panel of cancer cells of different origin. The cancer cell lines HeLa, A375, HepG2, MDA-MB-231, HL 60, A549 and HCT116 were treated with Uttroside B as indicated, incubated for 72 h and the cell viability was assessed by MTT assay. FIG. 2B is a graph showing dose dependent effect of Uttroside B in the liver cancer cell lines and in normal immortalized hepatocytes. The liver cancer cell lines HepG2, Hep3B, SKHEP-1, Huh-7 and normal hepatocytes (Chang liver), were treated with Uttroside B incubated for 72 h and the cell viability was assessed by MTT assay. FIG. 2C is a graph comparison of IC50 of Uttroside B with sorafenib. HepG2 cells were treated with Uttroside B as indicated, incubated for 72 h, and the cell viability was assessed by MTT assay. FIG. 2D is an image of the morphological changes induced by Uttroside B in HepG2 cells. […] FIG. 2E is an image showing Uttroside B inhibits the clonogenic potential of HepG2 cells. HepG2 cells were treated with different concentrations of Uttroside B for 72 h and the clonogenic assay was performed. FIG. 2F is a graph comparison of efficacy of Uttroside B in inhibiting the clonogenic potential of HepG2 cells. The clones developed were counted and plotted as a graph. Colony containing more than four cells was counted as one clone. […]
smiles,measurement,setting,value
C[C@H](CC[C@@]1(O)O[C@H]2C[C@H]3[C@@H]4CC[C@H]5C[C@@H](O[C@@H]6O[C@H](CO)[C@H](O[C@@H]7O[C@H](CO)[C@@H](O)[C@H](O[C@@H]8OC[C@@H](O)[C@H](O)[C@H]8O)[C@H]7O[C@@H]7O[C@H](CO)[C@@H](O)[C@H](O)[C@H]7O)[C@H](O)[C@H]6O)CC[C@]5(C)[C@H]4CC[C@]3(C)[C@H]2[C@@H]1C)CO[C@@H]1O[C@H](CO)[C@@H](O)[C@H](O)[C@H]1O [Uttroside B],IC50,A375,1.6 µM
same,morphological changes characteristic of apoptosis,"HepG2 cells; 72 h, dose dependent","Nuclear condensation, membrane blebbing and formation of apoptotic bodies"
same,vacuole formation,"HepG2 cells; HepG2, 24 h",induces vacuole formation
